Laboratory results: patent US7977375B2, “Antibiotic and method of production thereof” (Helmholtz-Zentrum Für Infektionsforschung GmbH, priority 2004, dated 2011)
In brackets after ≈: the same amount, converted by molar mass.

Experiments:
[1] = tested on: E. faecium VRAR E315; experiment: agar diffusion method, inhibition zone; type: cell-based, Enterococcus faecium; details: Enterococcus faecium, VRARE315; E. faecium VRAR E315; MH agar, 18 hours at 37° C.; per disk 10 μl crude extract, 50 μg macrolactin, 78 μg erythromycin, 30 μg vancomycin, 10 μg ampicillin
Protocol: The agar diffusion method employing Mueller-Hinton (MH) agar (Difco Laboratories) was used to determine effectiveness against bacteria and yeasts. Sterile paper disks (Schleicher & Schüell, Germany) were seeded with 10 μl crude extract or with a solution of purified macrolactin (final compound concentration on the disk 50 μg) and then placed on the surface of MH-agar plates that had been seeded beforehand with a suspension of overnight culture of the test microorganisms at a concentration of 10^5 cells/ml.

[2] = tested on: E. faecalis ATCC 29212; experiment: MIC / MBC in liquid culture; type: cell-based, Enterococcus faecalis
[3] = tested on: Staphylococcus aureus (#); experiment: kinetics of growth at sub-MIC concentrations (FIG. 1A); type: cell-based; details: S. aureus #, 1 or 4 μg/ml
Protocol: Investigation of the bacteriostatic activity of 7-O-malonyl macrolactin A required testing the effects of sub-MIC concentrations. […] 24 hours after treatment, the titre of viable cells was reduced by a factor of 100 as compared to the control without 7-O-malonyl macrolactin A.
(§1) • FIG. 1A y-axis: Log CFU (Colony Forming Units) Cells/ml • x-axis: Time (HRS) • FIG. 1B y-axis: Log CFU (Colony Forming Units) Cells/ml • x-axis: Time (HRS) • FIG. 1C: y-axis: Log CFU (Colony Forming Units) Cells/ml • x-axis: Time (HRS) • FIG. 1D: y-axis: Log CFU (Colony Forming Units) Cells/ml • x-axis: Time (HRS) • FIG. 1E: y-axis: Log CFU (Colony Forming Units) Cells/ml • x-axis: Time (HRS) • FIG. 1F: y-axis: Log CFU (Colony Forming Units) Cells/ml • x-axis: Time (HRS) • FIG. 5A: y-axis: % Inhibition • x-axis Concentration μg/ml • FIG. 5B: y-axis: % Inhibition • x-axis Concentration μg/ml

[4] = tested on: Candida krusei DSMZ6128; experiment: kinetics of growth (FIG. 1E); type: cell-based; details: C. krusei; 128 μg/ml
Description: as §1

[5] = tested on: S. aureus MRSA 3; experiment: electron microscopy of cell division (FIG. 2); type: cell-based, Staphylococcus aureus; details: 16 μg/ml, 4 hours shake culture
Protocol: FIGS. 2 a), b) and c) are electron microscope photographs of S. aureus MRSA 3 after 4 hours growth without antibiotic and d), e) and f) in the presence of 16 μg/ml 7-O-malonyl macrolactin A;
It is thought that 7-O-malonyl macrolactin A inhibits the division of bacterial cells, which interrupts the proliferation thereof.
7-O-malonyl macrolactin A influences cell division in MRSA 3, which is evident from the altered division planes. […] The large black arrowheads (FIGS. 2e) and f)) indicate the division planes, while the small black arrowheads indicate an asymmetrical initiation of cell division.

[6] = tested on: bacteria, especially gram-positive bacteria; experiment: bacteriostatic activity, general statement; type: cell-based; details: very low concentrations
Protocol: 7-O-malonyl macrolactin A is antibiotically active against bacteria, especially gram-positive bacteria and is, in particular, advantageously bacteriostatic at very low concentrations, for example, in the region of 0.05-4 μg/ml. […] The bacteriostatic activity of 7-O-malonyl macrolactin A has already been observed at weak concentrations, as compared to the prior art macrolactin A, even where there has been no direct or immediate bactericidal effect at such low concentrations.

Structure (SMILES): CC1CCC/C=C/C=C/C(O)CC(O)C/C=C\C=C\C(OC(=O)CC(=O)O)C/C=C/C=C\C(=O)O1 (stereo not drawn) [7-O-malonyl macrolactin A]
- zone of inhibition at 50 µg/disc [1]: 15 mm
- MIC (minimal inhibitory concentration) ([2]; E. faecalis ATCC 29212): 128 µg/mL (≈ 262 µM)
- MBC ([2]; Enterococcus faecalis, ATCC29212, E. faecalis ATCC 29212, read-out: MBC (minimal bacteriostatic or fungistatic concentration)): 4 µg/mL (≈ 8.19 µM)
- MIC ([2]; Enterococcus faecalis, ATCC29212, E. faecalis ATCC 29212, read-out: MIC (minimal inhibitory concentration)): > 128 µg/mL
- effect on kinetics of growth ([3]; far below the MIC, first 4 hours): kills off this bacterium within the first 4 hours following dosage
- growth reduced by a factor ([3]; subsequent cultivation time): 10
- growth inhibited by a factor [4]: ≤ 10
- effect on cell division, electron microscope [5]: disrupted cell division
- bacteriostatic concentration [6]: 0.05 to 4 µg/mL
